Test results as given in PMC10205807, “Cross-species comparison in nonclinical pharmacokinetics of lenvatinib by a simple HPLC with ultraviolet detection” (Scientific Reports, 2023).

Key:
[1] = Stability of lenvatinib in mice plasma and processed samples; format: physicochemical; details: for Frozen stability, mean percentage bias from the theoretical values: below − 15 °C, 4 weeks
Protocol: Calibration samples and QC samples for the reproducibility assessment were prepared by spiking 0.05 mL of the working standard solutions to blank plasma (0.05 mL), and QC samples for the stability assessment were prepared by fortifying 0.05 mL of the solution to 1.5 mL of bank plasma. Lenvatinib concentrations in plasma were 0.005, 0.01, 0.03, 0.1, 0.3, 1, 3, 10, 30, and 100 μg/mL for the calibration samples, and were 0.005, 0.01, 1, and 100 μg/mL for the QC samples for reproducibility assessment. Lenvatinib concentrations of QC samples for the stability assessment were 0.01, 1, and 80 μg/mL.
The developed method for the determination of lenvatinib concentrations in plasma was validated and the following validation parameters including linearity, selectivity, intra- and inter-batch reproducibility, extraction recovery, and stability were evaluated in accordance with the bioanalytical guidelines by United States Food and Drug Administration (US-FDA)[7]. The peak height ratios of lenvatinib to the IS of calibration samples were plotted against the corresponding nominal concentrations of lenvatinib. The calibration curve was prepared by the least square method with 1/(concentration)^2 as the weighting factor. In the linearity assessment, accuracy of each calibration sample was determined to ensure that relative error (RE) at each concentration was within ± 15% (within ± 20% at the LLOQ). […] Intra-batch accuracy and precision were evaluated using QC samples at the four concentrations, LLOQ, low QC (LQC), mid QC (MQC), and ULOQ. […] Inter-batch accuracy and precision were evaluated by testing a single sample at each concentration across five batches (n = 5 in total). […] Extraction recoveries of lenvatinib and the IS from plasma samples of the four species were evaluated. The recoveries of lenvatinib at the low, mid, and high QC levels (triplicates per concentration), and that of the IS (0.5 μg/mL) were determined. […] Stability of lenvatinib in plasma and processed samples was assessed at the low and high QC levels. Lenvatinib concentrations in samples after storage were compared to the theoretical concentrations and RE values were calculated. […] Freeze–thaw stability in plasma was evaluated up to three freeze–thaw cycles and frozen stability in plasma was evaluated at − 15 °C or below for 4 weeks (mice, rats, and dogs) or 6 weeks (monkeys). Stability in processed samples was assessed at 4 °C for 7 days. Stability of lenvatinib in the standard solutions was evaluated for the stock (100 μg/mL) and the working solution (5 ng/mL). The stability of the IS solution (0.5 μg/mL) was also assessed. […]

[2] = PK study in dogs (intravenous and oral); format: in vivo
Protocol: Male beagle dogs purchased from Marshall Farm USA Inc. (NY, USA) were used for the PK study. Dogs were 16 months old when the PK study was conducted. The PK study was performed in a cross-over design with 8 days interval between the doses. Dogs were fasted a day before the PK study and feeding was resumed 4 h postdose. Dosing solution of lenvatinib used in the dog PK study was the same as that in the rodent PK studies. Lenvatinib was intravenously administered at the dose of 3 mg/kg via cephalic vein. Oral administration of lenvatinib was conducted at 3 mg/kg by using a tube with a disposable syringe, and then the dosing tube was given ca. 30 mL of water to flush the remaining dosing solution in the tube. The number of dogs at each dose was four. Approximately 0.5 mL of blood samples were serially obtained from the cephalic vein using a heparinized syringe at pre-dose, and at 5, 15 and 30 min, and 1, 2, 4, 6, 8, 12 and 24 h post-dose. Plasma sample preparation and sample storage were the same as those in the rodent PK studies. PK parameters of lenvatinib were estimated by model independent analysis using a WinNonlin program (Version 4.1, Pharsight Corporation, Mountain View, CA). The time to reach the maximum plasma concentration (Tmax) and the maximum plasma concentration (Cmax) values were obtained directly from the plasma concentration data. Terminal half-life (T1/2) was calculated by ln2/ke, where ke is the slope of the regression line that fits the portion of the terminal phase (at least three time points) in the log-linear concentration–time curve. AUC0–t and AUMC0–t, the area under the concentration–time curves and the area under the first moment curve, from time = zero to time = t, respectively, were calculated using the lenvatinib concentrations in plasma by the linear/log trapezoidal method. AUC0–inf was calculated by AUC0–t + Ct/ke, and AUMC0–inf was AUMC0–t + Ct × t/ke + Ct/(ke)^2, where Ct is the last measurable concentration at time = t. The plasma concentration at time zero for the intravenous dose was extrapolated, while zero was used for the oral doses. Mean residence time (MRT), total plasma clearance (CLtot) and the volume of distribution at steady state (Vdss) were calculated by AUMC0–inf/AUC0–inf, Dose/AUC0–inf and CLtot × MRT, respectively. Oral bioavailability (F) was estimated by comparing dose-normalized AUC0–inf after oral (AUC0–inf.po) and intravenous (AUC0–inf.iv) administration as follows: F (%) = (AUC0–inf.po/AUC0–inf.iv) × 100.

[3] = male, beagle, dog, plasma, intravenous 3 mg/kg
[4] = male, beagle, dog, plasma, oral 3 mg/kg

## COc1cc2nccc(Oc3ccc(NC(=O)NC4CC4)c(Cl)c3)c2cc1C(N)=O [lenvatinib, Lenvatinib]
[1]; mice plasma, 3 cycles, HQC 80 μg/mL
  Freeze/thaw stability, mean percentage bias from the theoretical values: 0.8%
[1]; mice plasma, LQC 0.01 μg/mL
  Frozen stability, mean percentage bias from the theoretical values: 0.0%
[1]; mice plasma, MQC 1 μg/mL
  Frozen stability, mean percentage bias from the theoretical values: 1.0%
[1]; processed mice plasma samples, 4 °C, 7 days, HQC 80 μg/mL
  Processed sample stability, mean percentage bias from the theoretical values: 0.3%
[2]; estimated from oral PK, Fa and Fg assumed unity, BW 10 kg
  CLint (hepatic intrinsic clearance): 61,500 mL/h
[2]; [3]
  AUC(0-inf): 8420 ± 927 ng·h/mL
  MRT: 4.34 ± 0.36 h
  half-life: 5.27 ± 0.83 h
[2]; male, beagle, dog, plasma, intravenous 3 mg/kg, extrapolated
  C0: 2440 ± 303 ng/mL
[2]; male, beagle, dog, plasma, intravenous 3 mg/kg, read-out: CLtot (converted)
  clearance: 6.13 mL/min/kg
[2]; male, beagle, dog, plasma, intravenous 3 mg/kg, read-out: Vdss
  Vd: 1.61 ± 0.249 L/kg
[2]; [4]
  AUC(0-inf): 5480 ± 1370 ng·h/mL
  Cmax: 1270 ± 302 ng/mL
  MRT: 4.81 ± 0.25 h
  half-life: 4.76 ± 0.94 h
[2]; male, beagle, dog, plasma, oral 3 mg/kg vs intravenous 3 mg/kg, read-out: F (oral bioavailability)
  bioavailability: 70.4 ± 23.1%
[2]; male, beagle, dog, plasma, oral 3 mg/kg, median (range)
  Tmax: 2 h
